In ChEMBL document CHEMBL5500383, “Recent advances and future directions on small molecule VEGFR inhibitors in oncological conditions” (Eur J Med Chem, 2024):

Tests used:
A498 = assay: Cytotoxicity against human A498 cells assessed as reduction in cell viability incubated for 48 hrs by MTT assay; format: functional, cell-based; conditions: A498, 48 h
CAKI-1 = assay: Cytotoxicity against human CAKI-1 cells assessed as reduction in cell growth incubated for 48 hrs by MTT assay; format: functional, cell-based; conditions: CAKI-1, 48 h
HepG2 [1] = assay: Cytotoxicity against human HepG2 cells assessed as reduction in cell viability measured after 72 hrs by MTT assay; format: functional, cell-based; conditions: HepG2, 72 h
HCT-116 [2] = assay: Cytotoxicity against human HCT-116 cells assessed as reduction in cell viability measured after 72 hrs by MTT assay; format: functional, cell-based; conditions: HCT-116, 72 h
[3] = biological target: T1, Vascular endothelial growth factor receptor 2 (Homo sapiens, UniProt P35968); assay: Inhibition of human recombinant VEGFR2 using biotinylated poly-GluTyr (4:1) as susbtrate measured for 1 hr by ELISA method
MCF7 [4] = assay: Cytotoxicity against human MCF7 cells assessed as reduction in cell viability measured after 72 hrs by MTT assay; format: functional, cell-based; conditions: MCF7, 72 h
[5] = Cytotoxicity against African green monkey Vero cells assessed as inhibition of cell growth incubated for 24 hrs by MTT assay; format: toxicity, cell-based, Chlorocebus sabaeus
MCF7 [6] = assay: Antiproliferative activity against human MCF7 cells assessed as cell growth inhibition measured for 24 hrs by MTT assay; format: functional, cell-based; conditions: MCF7, 24 h
Histone deacetylase 1 = Histone deacetylase 1 (Homo sapiens, UniProt Q13547); assay: Inhibition of HDAC1 (unknown origin)
[7] = biological target: T2, Protein deacetylase HDAC6 (Homo sapiens, UniProt Q9UBN7); assay: Inhibition of HDAC6 (unknown origin)
T2 sequence (Q9UBN7 whole entry): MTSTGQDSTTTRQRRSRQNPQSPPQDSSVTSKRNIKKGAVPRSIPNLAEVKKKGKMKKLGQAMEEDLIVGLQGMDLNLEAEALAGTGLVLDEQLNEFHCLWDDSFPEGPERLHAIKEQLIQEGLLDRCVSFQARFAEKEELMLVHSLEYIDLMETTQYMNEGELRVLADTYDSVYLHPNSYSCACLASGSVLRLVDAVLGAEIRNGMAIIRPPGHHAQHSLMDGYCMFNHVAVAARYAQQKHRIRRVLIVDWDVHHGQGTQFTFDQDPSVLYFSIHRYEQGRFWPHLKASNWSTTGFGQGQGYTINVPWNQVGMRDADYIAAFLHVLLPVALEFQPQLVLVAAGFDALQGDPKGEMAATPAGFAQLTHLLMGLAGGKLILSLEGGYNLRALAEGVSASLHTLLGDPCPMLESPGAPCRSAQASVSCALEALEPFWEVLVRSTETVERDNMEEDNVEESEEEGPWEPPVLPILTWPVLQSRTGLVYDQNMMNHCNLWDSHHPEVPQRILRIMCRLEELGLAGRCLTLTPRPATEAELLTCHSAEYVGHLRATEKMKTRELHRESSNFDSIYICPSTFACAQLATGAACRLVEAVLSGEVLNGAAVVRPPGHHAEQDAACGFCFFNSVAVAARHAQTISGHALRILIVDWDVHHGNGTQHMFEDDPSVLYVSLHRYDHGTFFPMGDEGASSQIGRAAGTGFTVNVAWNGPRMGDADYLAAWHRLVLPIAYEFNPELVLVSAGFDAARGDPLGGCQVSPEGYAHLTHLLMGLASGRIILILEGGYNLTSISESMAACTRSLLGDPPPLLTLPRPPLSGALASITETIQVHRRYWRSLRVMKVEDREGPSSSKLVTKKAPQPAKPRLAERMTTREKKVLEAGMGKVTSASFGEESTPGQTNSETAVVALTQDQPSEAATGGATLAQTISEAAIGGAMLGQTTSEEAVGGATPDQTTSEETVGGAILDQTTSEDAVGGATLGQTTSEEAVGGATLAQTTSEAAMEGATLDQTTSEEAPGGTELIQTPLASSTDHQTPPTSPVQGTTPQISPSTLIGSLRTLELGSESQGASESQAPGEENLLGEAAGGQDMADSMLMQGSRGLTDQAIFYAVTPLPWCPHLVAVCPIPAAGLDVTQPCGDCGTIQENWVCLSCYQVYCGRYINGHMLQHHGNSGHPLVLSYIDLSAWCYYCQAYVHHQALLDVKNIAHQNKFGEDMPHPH

[8] = biological target: Vascular endothelial growth factor receptor 3 (Homo sapiens, UniProt P35916); assay: Inhibition of VEGFR3 (unknown origin)
Histone deacetylase 4 = Histone deacetylase 4 (Homo sapiens, UniProt P56524); assay: Inhibition of HDAC4 (unknown origin)
[9] = biological target: T1, Vascular endothelial growth factor receptor 2; assay: Inhibition of VEGFR2 (unknown origin)
[10] = biological target: Vascular endothelial growth factor receptor 1 (Homo sapiens, UniProt P17948); assay: Inhibition of VEGFR1 (unknown origin)
[11] = biological target: T1, Vascular endothelial growth factor receptor 2; assay: Inhibition of VEGFR2 (unknown origin) by FRET based assay
[12] = Cytotoxicity against HUVEC cells assessed as cell growth inhibition incubated for 72 hrs by MTT assay; format: toxicity, cell-based; conditions: human
[13] = biological target: T1, Vascular endothelial growth factor receptor 2; assay: Inhibition of human VEGFR2 by discoverX kinome scan assay
[14] = biological target: T1, Vascular endothelial growth factor receptor 2; assay: Inhibition of VEGFR2 (unknown origin) by kinase profiling assay
[15] = biological target: Serine/threonine-protein kinase B-raf (Homo sapiens, UniProt P15056, V600E); assay: Inhibition of BRAF V600E mutant (unknown origin)
[16] = biological target: RAF proto-oncogene serine/threonine-protein kinase (Homo sapiens, UniProt P04049); assay: Inhibition of C-RAF (unknown origin)
[17] = Inhibition of VEGFR (unknown origin); design: species or system Homo sapiens
[18] = biological target: T1, Vascular endothelial growth factor receptor 2; assay: Inhibition of human recombinant VEGFR2
[19] = biological target: Serine/threonine-protein kinase B-raf (Homo sapiens, UniProt P15056); assay: Inhibition of wild type BRAF (unknown origin)
HCT-116 [20] = assay: Cytotoxicity against human HCT-116 cells assessed as inhibition of cell growth incubated for 48 hrs by MTT assay; format: functional, cell-based; conditions: HCT-116, 48 h
HepG2 [21] = assay: Cytotoxicity against human HepG2 cells assessed as inhibition of cell growth incubated for 48 hrs by MTT assay; format: functional, cell-based; conditions: HepG2, 48 h
PC-3 = assay: Cytotoxicity against human PC-3 cells assessed as inhibition of cell growth incubated for 48 hrs by MTT assay; format: functional, cell-based; conditions: PC-3, 48 h
MCF7 [22] = assay: Cytotoxicity against human MCF7 cells assessed as inhibition of cell growth incubated for 48 hrs by MTT assay; format: functional, cell-based; conditions: MCF7, 48 h
[23] = biological target: T1, Vascular endothelial growth factor receptor 2; assay: Inhibition of VEGFR2 (unknown origin) incubated for 1 hr in presence of ATP by ELISA method
HepG2 [24] = assay: Antiproliferative activity against human HepG2 cells assessed as cell growth inhibition measured for 24 hrs by MTT assay; format: functional, cell-based; conditions: HepG2, 24 h
A549 = assay: Antiproliferative activity against human A549 cells assessed as cell growth inhibition measured for 24 hrs by MTT assay; format: functional, cell-based; conditions: A549, 24 h
[25] = biological target: Epidermal growth factor receptor (Homo sapiens, UniProt P00533); assay: Inhibition of EGFR (unknown origin) by DiscoverX KINOMEscan assay
MCF7 [26] = assay: Antiproliferative actiivty against human MCF7 cells assessed as reduction in cell viability by MTT assay; format: functional, cell-based
HCT-116 [27] = assay: Antiproliferative actiivty against human HCT-116 cells assessed as reduction in cell viability by MTT assay; format: functional, cell-based
[28] = Antiproliferative actiivty against human WI-38 cells assessed as reduction in cell viability by MTT assay; format: toxicity, cell-based
[29] = biological target: T1, Vascular endothelial growth factor receptor 2; assay: Inhibition of human VEGFR2

T1 sequence (P35968 whole entry): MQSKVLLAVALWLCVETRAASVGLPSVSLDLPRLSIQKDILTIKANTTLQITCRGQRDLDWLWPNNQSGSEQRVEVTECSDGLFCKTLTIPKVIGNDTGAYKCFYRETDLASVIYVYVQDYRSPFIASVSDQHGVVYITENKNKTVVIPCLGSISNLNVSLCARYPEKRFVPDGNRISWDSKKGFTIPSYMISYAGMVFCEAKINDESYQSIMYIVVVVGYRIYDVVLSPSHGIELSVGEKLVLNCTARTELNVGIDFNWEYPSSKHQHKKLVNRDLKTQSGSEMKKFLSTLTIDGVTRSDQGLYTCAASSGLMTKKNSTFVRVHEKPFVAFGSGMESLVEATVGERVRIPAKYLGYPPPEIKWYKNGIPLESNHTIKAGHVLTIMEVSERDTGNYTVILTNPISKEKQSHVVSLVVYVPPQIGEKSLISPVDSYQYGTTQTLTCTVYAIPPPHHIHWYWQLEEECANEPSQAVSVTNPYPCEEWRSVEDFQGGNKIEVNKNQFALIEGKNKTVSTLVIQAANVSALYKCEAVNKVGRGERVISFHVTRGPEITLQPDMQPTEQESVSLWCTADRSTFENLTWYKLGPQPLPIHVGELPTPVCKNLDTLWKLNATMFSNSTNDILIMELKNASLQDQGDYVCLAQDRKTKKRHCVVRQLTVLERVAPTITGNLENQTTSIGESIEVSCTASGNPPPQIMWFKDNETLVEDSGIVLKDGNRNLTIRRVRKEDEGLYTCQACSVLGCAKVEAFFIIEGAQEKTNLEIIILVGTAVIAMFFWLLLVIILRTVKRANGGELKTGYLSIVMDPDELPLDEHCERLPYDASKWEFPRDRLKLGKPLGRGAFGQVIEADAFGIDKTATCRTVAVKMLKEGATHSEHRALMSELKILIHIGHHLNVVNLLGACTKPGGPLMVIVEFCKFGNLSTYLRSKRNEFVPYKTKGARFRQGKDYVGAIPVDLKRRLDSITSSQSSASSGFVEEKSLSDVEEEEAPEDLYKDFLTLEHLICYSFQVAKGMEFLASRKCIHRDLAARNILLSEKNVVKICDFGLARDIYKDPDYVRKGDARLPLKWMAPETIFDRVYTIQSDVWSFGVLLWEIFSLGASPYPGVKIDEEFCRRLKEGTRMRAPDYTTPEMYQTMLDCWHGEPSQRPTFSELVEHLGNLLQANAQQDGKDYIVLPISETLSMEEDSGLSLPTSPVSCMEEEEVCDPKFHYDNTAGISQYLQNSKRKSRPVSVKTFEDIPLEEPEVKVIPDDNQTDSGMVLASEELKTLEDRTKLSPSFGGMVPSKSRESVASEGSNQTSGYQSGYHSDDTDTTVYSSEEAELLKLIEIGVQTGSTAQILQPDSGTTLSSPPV
Epidermal growth factor receptor, sequence (P00533 whole entry): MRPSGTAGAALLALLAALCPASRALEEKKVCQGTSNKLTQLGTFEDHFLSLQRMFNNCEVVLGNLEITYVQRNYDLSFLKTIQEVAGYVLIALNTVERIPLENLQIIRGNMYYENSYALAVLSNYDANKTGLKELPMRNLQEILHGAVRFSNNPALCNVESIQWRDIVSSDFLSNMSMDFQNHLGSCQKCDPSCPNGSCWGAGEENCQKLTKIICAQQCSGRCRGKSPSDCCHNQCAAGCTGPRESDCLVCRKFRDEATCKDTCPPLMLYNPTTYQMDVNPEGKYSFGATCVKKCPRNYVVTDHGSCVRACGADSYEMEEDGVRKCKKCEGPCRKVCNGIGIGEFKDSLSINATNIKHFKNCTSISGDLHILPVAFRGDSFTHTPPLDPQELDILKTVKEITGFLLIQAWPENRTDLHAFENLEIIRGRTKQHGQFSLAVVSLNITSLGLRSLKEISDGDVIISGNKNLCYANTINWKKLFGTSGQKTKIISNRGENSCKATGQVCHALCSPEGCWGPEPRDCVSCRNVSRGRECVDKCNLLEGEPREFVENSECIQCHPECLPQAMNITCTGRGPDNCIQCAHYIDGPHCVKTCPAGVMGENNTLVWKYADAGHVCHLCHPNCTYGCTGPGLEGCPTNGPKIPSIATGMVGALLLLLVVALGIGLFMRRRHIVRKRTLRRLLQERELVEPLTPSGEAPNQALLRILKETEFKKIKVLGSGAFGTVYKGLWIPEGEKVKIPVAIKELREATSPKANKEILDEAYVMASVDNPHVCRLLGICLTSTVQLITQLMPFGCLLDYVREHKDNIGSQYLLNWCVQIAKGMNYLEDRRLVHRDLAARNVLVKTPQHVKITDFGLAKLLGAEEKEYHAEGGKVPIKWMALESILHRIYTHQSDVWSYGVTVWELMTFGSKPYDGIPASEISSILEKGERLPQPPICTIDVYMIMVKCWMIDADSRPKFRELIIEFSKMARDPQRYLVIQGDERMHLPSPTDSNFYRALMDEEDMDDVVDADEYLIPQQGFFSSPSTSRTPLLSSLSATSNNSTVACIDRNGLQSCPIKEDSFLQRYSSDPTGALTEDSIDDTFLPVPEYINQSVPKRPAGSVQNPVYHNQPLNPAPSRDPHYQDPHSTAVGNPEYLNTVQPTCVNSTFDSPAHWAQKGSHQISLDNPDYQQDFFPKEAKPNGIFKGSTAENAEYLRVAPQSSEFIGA
Histone deacetylase 4, sequence (P56524 whole entry): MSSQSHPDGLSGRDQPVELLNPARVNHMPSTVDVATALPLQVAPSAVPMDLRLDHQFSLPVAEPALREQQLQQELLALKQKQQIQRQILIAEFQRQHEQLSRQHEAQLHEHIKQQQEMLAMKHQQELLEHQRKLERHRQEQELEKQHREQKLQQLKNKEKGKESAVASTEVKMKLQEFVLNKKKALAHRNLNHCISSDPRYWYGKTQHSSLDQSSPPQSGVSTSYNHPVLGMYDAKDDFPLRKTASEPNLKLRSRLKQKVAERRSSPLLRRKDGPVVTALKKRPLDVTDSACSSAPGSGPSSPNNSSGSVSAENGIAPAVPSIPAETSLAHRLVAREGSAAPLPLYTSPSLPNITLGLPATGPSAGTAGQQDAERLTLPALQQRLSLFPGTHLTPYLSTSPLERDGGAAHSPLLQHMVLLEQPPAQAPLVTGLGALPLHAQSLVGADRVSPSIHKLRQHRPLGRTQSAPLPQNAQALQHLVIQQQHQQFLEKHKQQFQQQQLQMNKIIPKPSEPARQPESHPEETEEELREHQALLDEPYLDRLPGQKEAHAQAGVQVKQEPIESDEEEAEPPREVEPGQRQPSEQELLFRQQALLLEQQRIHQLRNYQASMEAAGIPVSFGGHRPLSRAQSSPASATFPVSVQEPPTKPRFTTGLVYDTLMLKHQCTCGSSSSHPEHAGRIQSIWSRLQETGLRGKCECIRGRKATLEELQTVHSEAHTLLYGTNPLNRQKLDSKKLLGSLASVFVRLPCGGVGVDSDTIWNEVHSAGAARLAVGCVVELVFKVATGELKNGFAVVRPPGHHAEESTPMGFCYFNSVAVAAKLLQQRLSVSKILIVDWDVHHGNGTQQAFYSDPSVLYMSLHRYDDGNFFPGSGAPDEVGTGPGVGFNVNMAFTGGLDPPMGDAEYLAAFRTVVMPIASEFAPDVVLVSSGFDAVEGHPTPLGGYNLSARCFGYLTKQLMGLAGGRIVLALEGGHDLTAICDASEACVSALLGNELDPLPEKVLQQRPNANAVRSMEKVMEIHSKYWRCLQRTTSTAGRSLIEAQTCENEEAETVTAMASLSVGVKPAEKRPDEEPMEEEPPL
Vascular endothelial growth factor receptor 1, sequence (P17948 whole entry): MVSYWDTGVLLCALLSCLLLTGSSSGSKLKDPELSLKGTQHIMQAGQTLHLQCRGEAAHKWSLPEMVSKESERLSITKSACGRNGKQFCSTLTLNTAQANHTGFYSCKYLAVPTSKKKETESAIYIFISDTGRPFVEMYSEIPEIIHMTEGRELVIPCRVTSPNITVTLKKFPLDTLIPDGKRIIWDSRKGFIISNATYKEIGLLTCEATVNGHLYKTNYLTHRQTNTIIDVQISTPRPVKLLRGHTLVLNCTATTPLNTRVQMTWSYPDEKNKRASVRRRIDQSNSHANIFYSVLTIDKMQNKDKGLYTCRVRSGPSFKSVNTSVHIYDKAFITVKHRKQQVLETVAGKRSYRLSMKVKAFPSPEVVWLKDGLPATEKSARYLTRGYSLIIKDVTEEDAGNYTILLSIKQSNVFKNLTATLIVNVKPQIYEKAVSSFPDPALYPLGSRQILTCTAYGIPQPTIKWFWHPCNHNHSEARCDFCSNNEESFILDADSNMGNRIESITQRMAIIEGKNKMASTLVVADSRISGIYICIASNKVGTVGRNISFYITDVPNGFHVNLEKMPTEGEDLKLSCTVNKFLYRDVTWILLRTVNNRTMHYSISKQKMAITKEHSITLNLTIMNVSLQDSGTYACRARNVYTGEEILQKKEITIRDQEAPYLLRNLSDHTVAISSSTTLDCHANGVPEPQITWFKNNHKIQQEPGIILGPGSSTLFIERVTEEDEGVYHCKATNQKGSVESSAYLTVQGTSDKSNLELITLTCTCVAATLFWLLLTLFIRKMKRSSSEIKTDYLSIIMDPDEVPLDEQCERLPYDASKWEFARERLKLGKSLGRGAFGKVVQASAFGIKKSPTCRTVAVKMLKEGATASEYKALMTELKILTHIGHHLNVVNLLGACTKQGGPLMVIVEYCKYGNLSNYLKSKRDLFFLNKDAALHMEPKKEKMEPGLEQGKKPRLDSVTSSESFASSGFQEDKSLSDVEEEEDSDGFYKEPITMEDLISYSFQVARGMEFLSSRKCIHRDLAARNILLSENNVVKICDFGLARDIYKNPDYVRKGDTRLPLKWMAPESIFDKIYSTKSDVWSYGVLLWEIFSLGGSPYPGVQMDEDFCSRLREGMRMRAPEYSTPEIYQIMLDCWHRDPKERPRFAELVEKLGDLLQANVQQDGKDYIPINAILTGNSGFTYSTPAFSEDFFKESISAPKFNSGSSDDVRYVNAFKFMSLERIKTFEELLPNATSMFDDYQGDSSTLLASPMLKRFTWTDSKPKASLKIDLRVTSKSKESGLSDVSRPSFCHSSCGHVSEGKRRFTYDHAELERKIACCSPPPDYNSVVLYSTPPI

Question: What does the source list for `Cc1ccc(/C=N/n2c(-c3cc4ccccc4[nH]3)n[nH]c2=S)cc1`?
Answer: IC50 (A498): 7.36 µM; IC50 (CAKI-1): 6.28 µM

Question: Which IC50 (HepG2 [1]) does the source give for `CCOC(=O)/C(=N\Nc1ccc(S(=O)(=O)Nc2nc(C)cc(C)n2)cc1)C(=O)NNc1ccccc1` here?
Answer: 8.97 µM

Question: What about the IC50 (HCT-116 [2]) of the same compound?
Answer: 10.1 µM

Question: What about the IC50 [3] of the same compound?
Answer: 0.15 µM

Question: What about the IC50 (MCF7 [4]) of the same compound?
Answer: 13.8 µM

Question: What about the IC50 at 24 h [5] of the same compound?
Answer: 59.8 µM

Question: Which IC50 (MCF7 [6]) does the source give for `Cc1cc(Oc2ncnc3sc4c(c23)CCCCC4)ccc1Cl` here?
Answer: 0.66 µM

Question: Which results are given for `Cc1c2ccc(Nc3ccnc(Nc4ccc(OCCCCCCC(=O)NO)cc4)n3)cc2nn1C`?
Answer: IC50 (Histone deacetylase 1): 0.24 µM; IC50 [7]: 0.063 µM; IC50 [8]: 0.066 µM; IC50 (Histone deacetylase 4): > 9.17 µM; IC50 [9]: 0.032 µM; IC50 [10]: 0.041 µM

Question: With `O=C(CN1CCN(c2cc(=O)[nH]c3c(-c4ccccc4)cccc23)CC1)Nc1ccc(F)cc1` as the compound, how does the IC50 [11] read?
Answer: 0.0388 µM

Question: What does the source list for `Cc1cc(NS(=O)(=O)c2ccc(NN=C3C(=O)NNC3=O)cc2)no1`?
Answer: IC50 (HepG2 [1]): 8.65 µM; IC50 (HCT-116 [2]): 7.49 µM; IC50 [3]: 0.15 µM; IC50 (MCF7 [4]): 14.3 µM; IC50 at 24 h [5]: 36.3 µM

Question: Which IC50 at 72 h [12] does the source give for `COc1ccc(-c2nc3c4cc(-c5ccc(OC)cc5)oc4ccn3n2)cc1` here?
Answer: 22.6 µM

Question: What about the IC50 [13] of the same compound?
Answer: 58 µM

Question: And the IC50 [14]?
Answer: 58 µM

Question: Which IC50 [15] does the source give for `COc1ccc(-n2c(SCC(=O)Nc3ccc(-c4nc5ccccc5[nH]4)cc3)nc3ccccc3c2=O)cc1` here?
Answer: > 100 µM

Question: And the IC50 [16]?
Answer: > 100 µM

Question: And the IC50 [17]?
Answer: 20.6 µM

Question: Which IC50 [18] does the source give for `Cc1[nH]c2ncnc(Nc3ccc(NC(=O)Nc4cccc(C(F)(F)F)c4)c(F)c3)c2c1C` here?
Answer: 0.0524 µM

Question: For `CCCNNC(=O)c1ccc(Nc2nccc(N(C)c3ccc4c(C)n(C)nc4c3)n2)cc1`, which IC50 [7] is on record?
Answer: 8.96 µM

Question: What about the IC50 [8] of the same compound?
Answer: 0.037 µM

Question: What about the IC50 (Histone deacetylase 4) of the same compound?
Answer: > 10 µM

Question: And the IC50 [10]?
Answer: 0.034 µM

Question: With `COc1ccc(/C=N/n2c(-c3cc4ccccc4[nH]3)n[nH]c2=S)cc1` as the compound, how does the IC50 (A498) read?
Answer: 20.6 µM

Question: And the IC50 (CAKI-1)?
Answer: 1.63 µM

Question: With `O=C(CSc1nc2sc3c(c2c(=O)n1-c1ccc(Cl)cc1)CCCC3)NNC(=O)Nc1cccc(C(F)(F)F)c1` as the compound, how does the IC50 [19] read?
Answer: 0.071 µM

Question: And the IC50 [15]?
Answer: 0.089 µM

Question: And the IC50 [9]?
Answer: 0.111 µM

Question: For `O=C(NC1=NN2C(=O)/C(=C/c3ccco3)N=C2S1)c1cccs1`, which IC50 (HCT-116 [20]) is on record?
Answer: 5.26 µM

Question: And the IC50 (HepG2 [21])?
Answer: 6.8 µM

Question: What about the IC50 (PC-3) of the same compound?
Answer: 8.01 µM

Question: What about the IC50 (MCF7 [22]) of the same compound?
Answer: 4.36 µM

Question: And the IC50 [9]?
Answer: 9.4 µM

Question: For `COc1cc(-c2nc(SCC(=O)Nc3ccc(C(C)=O)cc3)[nH]c(=O)c2C#N)cc(OC)c1OC`, which IC50 [23] is on record?
Answer: 199 µM

Question: For `CCOC(=O)/C(C#N)=C(\c1ccc(O)cc1)N1CC(=O)N(/N=C(\C)c2ccc(O)cc2O)C1=S`, which IC50 (HepG2 [24]) is on record?
Answer: 2.44 µM

Question: What about the IC50 (A549) of the same compound?
Answer: 1.27 µM

Question: What about the IC50 (MCF7 [6]) of the same compound?
Answer: 1.63 µM

Question: What about the IC50 [25] of the same compound?
Answer: 11.4 µM

Question: With `O=C(c1ccccc1)n1cc(-c2nc3cc(Cl)ccc3[nH]c2=O)c(=O)[nH]1` as the compound, how does the IC50 (MCF7 [26]) read?
Answer: 3.57 µM

Question: What about the IC50 (HCT-116 [27]) of the same compound?
Answer: 4.28 µM

Question: What about the IC50 [28] of the same compound?
Answer: 99.2 µM

Question: What about the IC50 [29] of the same compound?
Answer: 0.144 µM

Question: Which results are given for `C/C(=N\N1C(=O)CNC1=S)c1ccc(O)cc1O`?
Answer: IC50 (HepG2 [24]): 5.18 µM; IC50 (A549): 3.14 µM; IC50 (MCF7 [6]): 2.26 µM; IC50 [25]: 23.2 µM
